Values of other authors in patent US10130658B2, “Method of ex vivo enhancement of immune cell activity for cancer immunotherapy with a small molecule ablative compound” (Provectus Pharmatech, Inc., priority 2015, dated 2018).

What was measured:
[1] = tested on: Hela cells; conditions: treated for 1 hour following photodynamic irradiation
[2] = tested on: tumor cells

SMILES	HMGB1 release [1]	time to autolyse tumor cells ([2]; accumulates in lysosomes of tumor cells)	uptake into normal cells ([2]; normal cells)
CC(=O)Oc1c(I)cc2c(c1I)Oc1c(cc(I)c(OC(C)=O)c1I)C21OC(=O)c2c(Cl)c(Cl)c(Cl)c(Cl)c21 [rose bengal acetate]	passively released	–	–
O=C1OC2(c3cc(I)c(O)c(I)c3Oc3c2cc(I)c(O)c3I)c2c(Cl)c(Cl)c(Cl)c(Cl)c21 [RB, 4,5,6,7-tetrachloro-2′,4′,5′,7′-tetraiodofluorescein]	–	30 to 60 min	excluded
